Laboratory results: patent US12551564B2, “IRAK degraders and uses thereof” (Kymera Therapeutics, Inc., priority 2019, dated 2026)
Like-named read-outs stand apart in the source and are kept apart here.

Experiments:
OCI-LY10 = test: CTG Cell Viability Assay - OCI-LY10 (CellTiter-Glo); assay type: cell-based; settings: Homo sapiens, 96 h; OCI-LY10 cells, 4 days incubation; read-out: CTG Cell Viability Assay-OCI-LY100: Average external-IC50
Method: Cell viability assay with OCI-LY10 and TMD8
Compound-mediated viability effect on OCI-LY10 or TMD8 were quantitatively determined using the CellTiter-Glo® Luminescent Cell Viability Assay kit from Promega (Catalog number G7570) following manufacturer's recommended procedures. Briefly, OCI-LY10 or TMD8 cells is seeded into 384 well plates (Grenier Bio-One, Catalog number 781080) with a density of 10,000 cells per well. Compounds were then added to the assay plate with final top concentration of 10 μM and 1:3 dilution series with total of 9 doses. The final DMSO concentration was normalized to 0.2%. The assay plates were incubated at 37° C. for 4 days under 5% CO2. Then the assay plate was equilibrated at room temperature for 10 minutes. To determine cell viability, 30 μL CellTiter Glo reagent was added to each well and the assay plate was centrifuged at 1000 rpm for 30 second, incubated at room temperature for 10 min, and analyzed by detecting the luminescence using a multimode plate reader (EnVision 2105, PerkinElmer). The data was then analyzed by software Prism 7.0 from GraphPad and the dose response curves were fit using a three-parameter logistic equation to calculate IC50.

IRAK4 = biological target: T1, IRAK4 (Homo sapiens, UniProt Q9NWZ3); test: IRAK4 degradation in OCI-LY10 (MSD); assay type: cell-based; settings: OCI-LY10 cells
T1 construct: endogenous in cells; host or cells: OCI-LY10
T1 sequence (Q9NWZ3 1-460): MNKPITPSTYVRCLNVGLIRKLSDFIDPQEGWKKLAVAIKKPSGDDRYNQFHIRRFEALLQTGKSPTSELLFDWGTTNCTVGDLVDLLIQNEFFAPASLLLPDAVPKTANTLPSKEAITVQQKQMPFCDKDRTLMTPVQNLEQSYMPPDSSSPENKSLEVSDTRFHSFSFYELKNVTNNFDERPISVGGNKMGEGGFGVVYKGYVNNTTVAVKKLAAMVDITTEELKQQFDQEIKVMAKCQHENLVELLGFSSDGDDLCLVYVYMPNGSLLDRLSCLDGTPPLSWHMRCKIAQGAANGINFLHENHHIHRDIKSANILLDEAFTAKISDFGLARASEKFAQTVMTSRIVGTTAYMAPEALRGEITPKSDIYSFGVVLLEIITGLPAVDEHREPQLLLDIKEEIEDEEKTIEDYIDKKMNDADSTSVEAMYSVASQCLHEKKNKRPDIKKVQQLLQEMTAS
Method: IRAK4 degradation in OCI-LY10 (MSD)
Degradation of IRAK4 in OCI-LY10 was quantitatively measured using Meso Scale Discovery technology. OCI-LY10 cells were seeded in 96-well plates (Corning 3799) with a density of 300,000 cells per well in 100 μL fresh media. Compounds were then added to the assay plates with a final top concentration of 1 to 10 μM in a 1:3 dilution series with total of 8 doses. The assay plates were then incubated for 4 to 24 hours at 37° C. under 5% CO2. The assay plates were then centrifuged for 5 minutes and the cell pellets were treated with 100 μL/well RIPA lysis buffer (Boston BioProducts BP-115D) with proteinase inhibitors. To prepare MSD assay plates (Meso Scale Discovery Catalog number L15XA-3), the plates were coated with 2 μg/mL capture antibody (mouse Anti-IRAK4 antibody [2H9], ab119942) in PBS, at 40 μL/well. The plates were then incubated overnight at 4° C., washed 3 times with 150 μL/well TBST buffer (Cell Signaling Technology, Catalog number 9997S) and blocked with 150 μL well blocking buffer (Meso Scale Discovery Catalog number R93BA-4). Cell lysates were then added to MSD assay plates and the plates were incubated at room temperature for 1 hour. The plates were then washed 3 times with 150 μL/well TBST buffer and 25 μL/well primary detection antibody (rabbit Anti-IRAK4 antibody [Y279], from Abcam. Catalog number ab32511, 1 μg/mL). The assay plates were then incubated at room temperature for 1 hour, washed 3 times with 150 TBST buffer and 25A/well secondary detection antibody, SULFO-TAG anti-rabbit antibody were added (anti rabbit antibody from Meso Scale Discovery, Catalog number R32AB-1, 1 μg/mL). The assay plates were then incubated at room temperature for 1 hour, washed 3 times with 150 TBST buffer, and 150 MSD reading buffer (Meso Scale Discovery catalog number R92TC-2) was added. The plates were then analyzed by a MSD reader (Meso Scale Discovery, Model Quick Plex SQ 120). The data was then analyzed by software Prism 7.0 from GraphPad and the dose-depended IRAK4 degradation were fit using a three-parameter logistic equation to calculate DC50.

[1] = 4 hrs incubation, read-out: IRAK4 MSD degradation in OCI-LY10 at 4 hrs: Average external-Abs DC50
[2] = 24 hrs incubation, read-out: IRAK4 MSD degradation in OCI-LY10 at 24 hrs: Average external-Abs DC50

IC50 (OCI-LY10) | DC50 (IRAK4; [1]) | DC50 (IRAK4; [2]) | SMILES
> 1000 nM | > 1000 nM | > 1000 nM | CN(CCCNC(=O)COc1ccc2c(c1)CCCN2C(=O)CCl)C[C@H]1CC[C@H](n2cc(NC(=O)c3coc(-c4ccnc(NCC5CC5)c4)n3)c(C(F)F)n2)CC1 [I-1, N-(1-((1r,4r)-4-(((3-(2-((1-(2-chloroacetyl)-1,2,3,4-tetrahydroquinolin-6-yl)oxy)acetamido)propyl)(methyl)amino)methyl)cyclohexyl)-3-(difluoromethyl)-1H-pyrazol-4-yl)-2-(2-((cyclopropylmethyl)amino)pyridin-4-yl)oxazole-4-carboxamide]
> 1000 nM | > 1000 nM | > 1000 nM | CN(CCCCCNC(=O)COc1ccc2c(c1)CCCN2C(=O)CCl)C[C@H]1CC[C@H](n2cc(NC(=O)c3coc(-c4ccnc(NCC5CC5)c4)n3)c(C(F)F)n2)CC1 [I-2]
> 1000 nM | > 1000 nM | > 1000 nM | CN(CCCCCCCNC(=O)COc1ccc2c(c1)CCCN2C(=O)CCl)C[C@H]1CC[C@H](n2cc(NC(=O)c3coc(-c4ccnc(NCC5CC5)c4)n3)c(C(F)F)n2)CC1 [I-3]
> 1000 nM |  | > 1000 nM | CN(CCCCCCCCCNC(=O)COc1ccc2c(c1)CCCN2C(=O)CCl)C[C@H]1CC[C@H](n2cc(NC(=O)c3coc(-c4ccnc(NCC5CC5)c4)n3)c(C(F)F)n2)CC1 [I-4]
> 1000 nM | > 1000 nM | > 1000 nM | CN(CCCCOc1ccc(Oc2ccc(N(Cc3ccccc3)C(=O)CCl)cc2)cc1)C[C@H]1CC[C@H](n2cc(NC(=O)c3coc(-c4ccnc(NCC5CC5)c4)n3)c(C(F)F)n2)CC1 [I-5]
500 to 1000 nM | > 1000 nM | > 1000 nM | CN(CCCCCCOc1ccc(Oc2ccc(N(Cc3ccccc3)C(=O)CCl)cc2)cc1)C[C@H]1CC[C@H](n2cc(NC(=O)c3coc(-c4ccnc(NCC5CC5)c4)n3)c(C(F)F)n2)CC1 [I-6]
500 to 1000 nM | > 1000 nM | 100 to 1000 nM | CN(CCCCCCCCOc1ccc(Oc2ccc(N(Cc3ccccc3)C(=O)CCl)cc2)cc1)C[C@H]1CC[C@H](n2cc(NC(=O)c3coc(-c4ccnc(NCC5CC5)c4)n3)c(C(F)F)n2)CC1 [I-7]
500 to 1000 nM | > 1000 nM | 100 to 1000 nM | CN(CCCCCCCCCCOc1ccc(Oc2ccc(N(Cc3ccccc3)C(=O)CCl)cc2)cc1)C[C@H]1CC[C@H](n2cc(NC(=O)c3coc(-c4ccnc(NCC5CC5)c4)n3)c(C(F)F)n2)CC1 [I-8, N-(1-((1r,4r)-4-(((10-(4-(4-(N-benzyl-2-chloroacetamido)phenoxy)phenoxy)decyl)(methyl)amino)methyl)cyclohexyl)-3-(difluoromethyl)-1H-pyrazol-4-yl)-2-(2-((cyclopropylmethyl)amino)pyridin-4-yl)oxazole-4-carboxamide]
> 1000 nM | > 1000 nM | > 1000 nM | COCC(=O)N1CCCc2cc(OCC(=O)NCCCCCN(C)C[C@H]3CC[C@H](n4cc(NC(=O)c5coc(-c6ccnc(NCC7CC7)c6)n5)c(C(F)F)n4)CC3)ccc21 [I-9, 2-[2-(cyclopropylmethylamino)-4-pyridyl]-N-[3-(difluoromethyl)-1-[4-[[5-[[2-[[1-(2-methoxyacetyl)-3,4-dihydro-2H-quinolin-6-yl]oxy]acetyl]amino]pentyl-methyl-amino]methyl]cyclohexyl]pyrazol-4-yl]oxazole-4-carboxamide]
500 to 1000 nM |  | > 1000 nM | COCC(=O)N(Cc1ccccc1)c1ccc(Oc2ccc(OCCCCN(C)C[C@H]3CC[C@H](n4cc(NC(=O)c5coc(-c6ccnc(NCC7CC7)c6)n5)c(C(F)F)n4)CC3)cc2)cc1 [I-11]
500 to 1000 nM |  | > 1000 nM | CN(CCCCOc1ccc(Oc2ccc(N(Cc3ccccc3)C(=O)CCl)cc2)cc1)C[C@H]1CC[C@H](n2cc(N(C)C(=O)c3coc(-c4ccnc(NCC5CC5)c4)n3)c(C(F)F)n2)CC1 [I-12]
